Data published in patent US11912686B2 (Gilead Sciences, Inc., priority 2020, dated 2024).

Target: human LPAR1 (Homo sapiens (Human), UniProt Q92633)
Assay: LPAR1 intracellular calcium mobilization assay (antagonist mode, FLIPR)
Format: cell-based
Settings: CHO-K1 EDG2 cells expressing human LPAR1, LPA 18:2 at EC80 (100 nM), test compound 0.5 nM to 10 μM

Chain of human LPAR1 (Q92633 whole entry): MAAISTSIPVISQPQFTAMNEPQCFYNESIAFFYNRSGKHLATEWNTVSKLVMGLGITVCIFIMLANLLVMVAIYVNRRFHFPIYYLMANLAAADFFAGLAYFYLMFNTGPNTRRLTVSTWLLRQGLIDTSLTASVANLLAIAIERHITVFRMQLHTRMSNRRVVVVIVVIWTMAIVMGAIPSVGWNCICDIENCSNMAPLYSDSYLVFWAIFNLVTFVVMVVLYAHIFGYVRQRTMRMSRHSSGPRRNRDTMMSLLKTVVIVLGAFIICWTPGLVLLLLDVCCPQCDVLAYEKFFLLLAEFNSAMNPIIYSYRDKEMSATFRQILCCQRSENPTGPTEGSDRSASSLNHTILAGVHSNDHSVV

| Structure (SMILES) | EC50 |
| --- | --- |
| Cc1ncc(F)cc1[C@@H](C)OC(=O)Nc1c(-c2ccc(NC(=O)C34CC(F)(C3)C4)cn2)nnn1C [Compound 179, (R)-1-(5-fluoro-2-methylpyridin-3-yl)ethyl (4-(5-(3-fluorobicyclo[1.1.1]pentane-1-carboxamido)pyridin-2-yl)-1-methyl-1H-1,2,3-triazol-5-yl)carbamate] | 46.5 nM |
| C[C@H](O)C(=O)Nc1ccc(-c2nnn(C)c2NC(=O)O[C@H](C)c2cccnc2Cl)nc1 [Compound 125, (R)-1-(2-chloropyridin-3-yl)ethyl (4-(5-((S)-2-hydroxypropanamido)pyridin-2-yl)-1-methyl-1H-1,2,3-triazol-5-yl)carbamate] | 2710 nM |
| C[C@@H](OC(=O)Nc1c(-c2cnc(NC(=O)c3ccnc(F)c3F)cn2)nnn1C)c1cc(F)cnc1F [Compound 323, (R)-1-(2,5-difluoropyridin-3-yl)ethyl (4-(5-(2,3-difluoroisonicotinamido)pyrazin-2-yl)-1-methyl-1H-1,2,3-triazol-5-yl)carbamate] | 178 nM |
| CCC(=O)Nc1ccc(-c2nnn(C)c2NC(=O)O[C@H](C)c2cccnc2Cl)nc1 [Compound 33, (R)-1-(2-chloropyridin-3-yl)ethyl (1-methyl-4-(5-propionamidopyridin-2-yl)-1H-1,2,3-triazol-5-yl)carbamate] | 1020 nM |
| C[C@@H](OC(=O)Nc1c(-c2ccc(NC(=O)C3CC34CC4)cn2)nnn1C)c1cccnc1Cl (stereo partly drawn) [Compound 149, (R)-1-(2-chloropyridin-3-yl)ethyl (1-methyl-4-(5-(spiro[2.2]pentane-1-carboxamido)pyridin-2-yl)-1H-1,2,3-triazol-5-yl)carbamate] | 329 nM |
| C[C@@H](OC(=O)Nc1c(-c2ccc(NC(=O)C3CC(C)(O)C3)cn2)nnn1C)c1cccnc1Cl (stereo partly drawn) [Compound 108, (R)-1-(2-chloropyridin-3-yl)ethyl (4-(5-(3-hydroxy-3-methylcyclobutane-1-carboxamido)pyridin-2-yl)-1-methyl-1H-1,2,3-triazol-5-yl)carbamate] | 420 nM |
| C[C@@H](OC(=O)Nc1c(-c2ccc(NC(=O)C3CC(C)(O)C3)cn2)nnn1C)c1cccnc1Cl (stereo partly drawn) [Compound 109, (R)-1-(2-chloropyridin-3-yl)ethyl (4-(5-(3-hydroxy-3-methylcyclobutane-1-carboxamido)pyridin-2-yl)-1-methyl-1H-1,2,3-triazol-5-yl)carbamate] | 1710 nM |
| C[C@@H](OC(=O)Nc1c(-c2ccc(NC(=O)C34CC(C#N)(C3)C4)cn2)nnn1C)c1cc(F)cnc1F [Compound 162, (R)-1-(2,5-difluoropyridin-3-yl)ethyl (4-(5-(3-cyanobicyclo[1.1.1]pentane-1-carboxamido)pyridin-2-yl)-1-methyl-1H-1,2,3-triazol-5-yl)carbamate] | 84.7 nM |
| C[C@@H](OC(=O)Nc1c(-c2ccc(NC(=O)[C@@H]3C[C@H]3C3CC3)cn2)nnn1C)c1cc(F)cnc1F [Compound 267, (R)-1-(2,5-difluoropyridin-3-yl)ethyl (4-(5-((1S,2R)[1,1′-bi(cyclopropane)]-2-carboxamido)pyridin-2-yl)-1-methyl-1H-1,2,3-triazol-5-yl)carbamate] | 588 nM |
| C[C@@H](OC(=O)Nc1c(-c2ccc(NC(=O)[C@@H]3CCC3(F)F)cn2)nnn1C)c1cccnc1Cl [Compound 90, (R)-1-(2-chloropyridin-3-yl)ethyl (4-(5-((S)-2,2-difluorocyclobutane-1-carboxamido)pyridin-2-yl)-1-methyl-1H-1,2,3-triazol-5-yl)carbamate] | 73.5 nM |
| C[C@@H](OC(=O)Nc1c(-c2ccc(NC(=O)C3CC3(C)C)cn2)nnn1C)c1cccnc1Cl (stereo partly drawn) [Compound 49, (R)-1-(2-chloropyridin-3-yl)ethyl (4-(5-(2,2-dimethylcyclopropane-1-carboxamido)pyridin-2-yl)-1-methyl-1H-1,2,3-triazol-5-yl)carbamate] | 353 nM |
| C[C@@H](OC(=O)Nc1c(-c2ccc(NC(=O)[C@]3(F)C[C@@H](O)C3)cn2)nnn1C)c1cccnc1Cl [Compound 134, (R)-1-(2-chloropyridin-3-yl)ethyl (4-(5-((1s,3S)-1-fluoro-3-hydroxycyclobutane-1-carboxamido)pyridin-2-yl)-1-methyl-1H-1,2,3-triazol-5-yl)carbamate] | 449 nM |
| C[C@@H](OC(=O)Nc1c(-c2ccc(NC(=O)c3ccc(C(F)(F)F)nc3)cn2)nnn1C)c1cc(F)cnc1F [Compound 242, (R)-1-(2,5-difluoropyridin-3-yl)ethyl (1-methyl-4-(5-(6-(trifluoromethyl)nicotinamido)pyridin-2-yl)-1H-1,2,3-triazol-5-yl)carbamate] | 63.3 nM |
| C[C@@H](OC(=O)Nc1c(-c2ccc(NC(=O)C34CCC(F)(CC3)CC4)cn2)nnn1C)c1cccnc1Cl [Compound 114, (R)-1-(2-chloropyridin-3-yl)ethyl (4-(5-(4-fluorobicyclo[2.2.2]octane-1-carboxamido)pyridin-2-yl)-1-methyl-1H-1,2,3-triazol-5-yl)carbamate] | 504 nM |
| C[C@@H](OC(=O)Nc1c(-c2ccc(NC(=O)C3(CF)CC3)cn2)nnn1C)c1cccnc1Cl [Compound 110, (R)-1-(2-chloropyridin-3-yl)ethyl (4-(5-(1-(fluoromethyl)cyclopropane-1-carboxamido)pyridin-2-yl)-1-methyl-1H-1,2,3-triazol-5-yl)carbamate] | 68.2 nM |
| CO[C@]1(C#N)C[C@H](C(=O)Nc2cnc(-c3nnn(C)c3NC(=O)O[C@H](C)c3cc(F)cnc3F)nc2)C1 [Compound 335, (R)-1-(2,5-difluoropyridin-3-yl)ethyl (4-(5-((1s,3S)-3-cyano-3-methoxycyclobutane-1-carboxamido)pyrimidin-2-yl)-1-methyl-1H-1,2,3-triazol-5-yl)carbamate] | 778 nM |
| C[C@@H](OC(=O)Nc1c(-c2ccc(NC(=O)[C@@H]3C[C@H]3c3ccccn3)cn2)nnn1C)c1cc(F)cnc1F [Compound 265, (R)-1-(2,5-difluoropyridin-3-yl)ethyl (1-methyl-4-(5-((1R,2R)-2-(pyridin-2-yl)cyclopropane-1-carboxamido)pyridin-2-yl)-1H-1,2,3-triazol-5-yl)carbamate] | 19.5 nM |
| C[C@@H](OC(=O)Nc1c(-c2ccc(NC(=O)C34CC(C#N)(C3)C4)cn2)nnn1C)c1cccnc1Cl [Compound 64, (R)-1-(2-chloropyridin-3-yl)ethyl (4-(5-(3-cyanobicyclo[1.1.1]pentane-1-carboxamido)pyridin-2-yl)-1-methyl-1H-1,2,3-triazol-5-yl)carbamate] | 76.4 nM |
| C[C@@H](OC(=O)Nc1c(-c2ccc(NC(=O)[C@H]3[C@@H]4CN(CC(F)(F)F)C[C@@H]43)cn2)nnn1C)c1cccnc1Cl [Compound 308, (R)-1-(2-chloropyridin-3-yl)ethyl (1-methyl-4-(5-((1R,5S,6r)-3-(2,2,2-trifluoroethyl)-3-azabicyclo[3.1.0]hexane-6-carboxamido)pyridin-2-yl)-1H-1,2,3-triazol-5-yl)carbamate] | 337 nM |
| C[C@@H](OC(=O)Nc1c(-c2ncc(NC(=O)[C@]3(C#N)C[C@H]3C(F)F)cn2)nnn1C)c1cc(F)cnc1Cl [Compound 286, (R)-1-(2-chloro-5-fluoropyridin-3-yl)ethyl (4-(5-((1R,2R)-1-cyano-2-(difluoromethyl)cyclopropane-1-carboxamido)pyrimidin-2-yl)-1-methyl-1H-1,2,3-triazol-5-yl)carbamate] | 104 nM |
| Cc1ncc(F)cc1[C@@H](C)OC(=O)Nc1c(-c2ccc(NC(=O)[C@@H]3C[C@H]3F)cn2)nnn1C [Compound 176, (R)-1-(5-fluoro-2-methylpyridin-3-yl)ethyl (4-(5-((1S,2R)-2-fluorocyclopropane-1-carboxamido)pyridin-2-yl)-1-methyl-1H-1,2,3-triazol-5-yl)carbamate] | 253 nM |
